According to US6914045B2, “Glycopeptide antibiotics” (Wyeth Holdings Corporation, priority 2001, dated 2005):
≈ marks a conversion by molar mass, not a printed value.

What was measured:
Experiment in all cases: in vitro antibacterial evaluation, MIC by broth dilution
Format in all cases: cell-based
[1] = tested on: Escherichia coli; conditions: 18 hours at 35° C.; for MIC Escherichia coli (GC 4559): strain GC 4559; for MIC Escherichia coli (GC 4560): strain GC 4560
Method in brief: (§1)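 Following National Committee for Clinical Laboratory Standards recommendations (M7-A2), susceptibility was measured by dilution in Muller-Hinton II […]. Bacteria were seeded at 5×10^5 CFU/mL against compound concentrations from 64 down to 0.06 μg/mL.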

[2] = tested on: Staphylococcus sp.; conditions: broth dilution, 18 hours at 35° C.
Method in brief: as §1

[3] = tested on: Enterococcus sp.; conditions: broth dilution, 18 hours at 35° C.
Method in brief: as §1

[4] = Enterococcus faecalis (ATCC 29212)
[5] = Enterococcus faecalis (GC 2242)
[6] = Enterococcus faecalis (GC 4552)

SMILES | MIC Escherichia coli (GC 4559) [1] [µg/mL] | MIC Escherichia coli (GC 4560) [1] [µg/mL] | MIC Coagulase Negative Staphylococcus (GC 4537) [2] [µg/mL] | MIC Coagulase Negative Staphylococcus (GC 4538) [2] [µg/mL] | MIC Coagulase Negative Staphylococcus (GC 4547) [2] [µg/mL] | MIC Staphylococcus aureus (ATCC 29213) [2] [µg/mL] | MIC Staphylococcus aureus (GC 1131) [2] [µg/mL] | MIC Staphylococcus aureus (GC 4535) [2] [µg/mL] | MIC Staphylococcus aureus-SMITH (GC 4536) [2] [µg/mL] | MIC Coagulase Negative Staphylococcus (GC 4537) ([2]; strain GC 4537) [µg/mL] | MIC Coagulase Negative Staphylococcus (GC 4538) ([2]; strain GC 4538) [µg/mL] | MIC Coagulase Negative Staphylococcus (GC 4547) ([2]; strain GC 4547) [µg/mL] | MIC Staphylococcus aureus (ATCC 29213) ([2]; strain ATCC 29213) [µg/mL] | MIC Staphylococcus aureus (GC 1131) ([2]; strain GC 1131) [µg/mL] | MIC Staphylococcus aureus (GC 4535) ([2]; strain GC 4535) [µg/mL] | MIC Staphylococcus aureus-SMITH (GC 4536) ([2]; strain GC 4536) [µg/mL] | MIC Enterococcus faecalis (ATCC 29212) [3, 4] [µg/mL] | MIC Enterococcus faecalis (GC 2242) [3, 5] [µg/mL] | MIC Enterococcus faecalis (GC 4552) [3, 6] [µg/mL] | MIC Enterococcus faecalis (ATCC 29212) ([3]; strain ATCC 29212) [µg/mL] | other results
CC(c1ccccc1)C1NC(=O)CNC(=O)C(CO)NC(=O)C(C(O)C2CNC(=N)N2C2OC(CO)C(O)C(O)C2O)NC(=O)C(C(O)C2CNC(=N)N2)NC(=O)C(Cc2ccc(OC3OC(COC(=O)CCC4CCCC4)C(OC4OC(CO)C(O)C(O)C4O)C(O)C3O)cc2)NC1=O (centres unmarked) [Example 100b] | >128 | 0.5 (≈ 0.352 µM) | 2 (≈ 1.41 µM) | 1 (≈ 0.704 µM) | 1 (≈ 0.704 µM) | 2 (≈ 1.41 µM) | 2 (≈ 1.41 µM) | 2 (≈ 1.41 µM) | 2 (≈ 1.41 µM) | 2 (≈ 1.41 µM) | 1 (≈ 0.704 µM) | 1 (≈ 0.704 µM) | 2 (≈ 1.41 µM) | 2 (≈ 1.41 µM) | 2 (≈ 1.41 µM) | 2 (≈ 1.41 µM) | 8 (≈ 5.64 µM) | 8 (≈ 5.64 µM) | 8 (≈ 5.64 µM) | 8 (≈ 5.64 µM) | MIC Enterococcus faecalis (GC 2242) ([3]; strain GC 2242): 8 µg/mL (≈ 5.64 µM); MIC Enterococcus faecalis (GC 4552) ([3]; strain GC 4552): 8 µg/mL (≈ 5.64 µM)
CC(c1ccccc1)C1NC(=O)CNC(=O)C(CO)NC(=O)C(C(O)C2CNC(=N)N2C2OC(CO)C(O)C(O)C2O)NC(=O)C(C(O)C2CNC(=N)N2)NC(=O)C(Cc2ccc(OC3OC(CO)C(OC4OC(COC(=O)CCC5CCCC5)C(O)C(O)C4O)C(O)C3O)cc2)NC1=O (centres unmarked) [Example 100c] | 32 (≈ 22.5 µM) | 0.5 (≈ 0.352 µM) | 1 (≈ 0.704 µM) | 1 (≈ 0.704 µM) | 1 (≈ 0.704 µM) | 1 (≈ 0.704 µM) | 1 (≈ 0.704 µM) | 1 (≈ 0.704 µM) | 1 (≈ 0.704 µM) | 1 (≈ 0.704 µM) | 1 (≈ 0.704 µM) | 1 (≈ 0.704 µM) | 1 (≈ 0.704 µM) | 1 (≈ 0.704 µM) | 1 (≈ 0.704 µM) | 1 (≈ 0.704 µM) | 4 (≈ 2.82 µM) | 2 (≈ 1.41 µM) | 4 (≈ 2.82 µM) | 4 (≈ 2.82 µM) | MIC Enterococcus faecalis (GC 2242) ([3]; strain GC 2242): 2 µg/mL (≈ 1.41 µM); MIC Enterococcus faecalis (GC 4552) ([3]; strain GC 4552): 4 µg/mL (≈ 2.82 µM)
